This test has as its system PC-3 cells. The experiment in a line: BrdU labeling, DNA synthesis (Cell Proliferation ELISA BrdU). The format is cell-based, human. To be noted: 5 μM compound, 24 hours. The procedure: PC-3 cells were plated in 96-well plates and treated with 5 μM of compound. After 24 hours, the cells were assayed for BrdU labeling using the Cell Proliferation ELISA BrdU kit from Roche; background BrdU incorporation levels (absent anti-BrdU-peroxidase solution) were subtracted and values were normalized to those of control untreated cells.
BrdU Labeling. For the BrdU experiment, PC-3 cells were seeded in 96-well plates at a density of 2×10^3 cells/well, treated with 5 μM of compound for 24 hr and assayed BrdU using the Cell Proliferation ELISA BrdU (chemiluminescence) (Roche Diagnostics, IN) kit according to the manufacturer's protocol. Briefly, 10 μL of 100 μM BrdU labeling solution was added to the cultured cells and were incubated for 1 hr at 37° C., the labeling solution was removed and the FixDenat solution provided with the kit was added for 30 min and incubated at room temperature. Cells were then incubated with anti-BrdU conjugated to peroxidase (1:1500) for 60 min. Finally, the plates were washed and 100 μL of substrate solution was added to each well, and the light emission was measured using a microplate luminometer (Harta Instruments, Inc., Gaithersburg, Md.).
To assess the levels of DNA synthesis within cells treated with mahanine compared to those treated with compounds 6-10, cultured cells were treated according to standard procedure with 5-bromo-2-deoxy-uridine (BrdU) after 24 hours of treatment (FIG. 2).
For orientation: Dividing cells build labelled thymidine or BrdU into new DNA.

Turning to `COc1ccc2c(c1)[nH]c1c(C)c(OS(=O)(=O)c3cccc4c(N(C)C)cccc34)ccc12` [Compound 6a, 7-Methoxy-1-methyl-9H-carbazol-2-yl 5-(dimethylamino)naphthalene-1-sulfonate], the “DNA synthetic ability (BrdU labeling)” value is reported as “decrease in DNA synthetic ability”.

The record behind these values is patent publication US10457639B2, “Fluorescent regulators of RASSF1A expression and human cancer cell proliferation” (GEORGETOWN UNIVERSITY, priority 2008, dated 2019).
